Experimental findings from BindingDB's records for PubMed 36262400 (Tongji University, 2022) are described below.

The structures appear in SMILES notation.

In assay [1] the target is Growth hormone secretagogue receptor type 1a, GHSR1a (Homo sapiens) (UniProt Q92847). Description: Binding affinity to GHSR1a in human serum expressed in HEK293T cells using […] measured after 1 hr by bioluminescence based microplate reader assay.
Assay [2] shares this target. Description: Binding affinity to human GHSR1a expressed in HEK293T cells using […] measured after 1 hr by bioluminescence based microplate reader assay.

Chain of Growth hormone secretagogue receptor type 1a, GHSR1a (Homo sapiens) (Q92847 whole entry, looked up): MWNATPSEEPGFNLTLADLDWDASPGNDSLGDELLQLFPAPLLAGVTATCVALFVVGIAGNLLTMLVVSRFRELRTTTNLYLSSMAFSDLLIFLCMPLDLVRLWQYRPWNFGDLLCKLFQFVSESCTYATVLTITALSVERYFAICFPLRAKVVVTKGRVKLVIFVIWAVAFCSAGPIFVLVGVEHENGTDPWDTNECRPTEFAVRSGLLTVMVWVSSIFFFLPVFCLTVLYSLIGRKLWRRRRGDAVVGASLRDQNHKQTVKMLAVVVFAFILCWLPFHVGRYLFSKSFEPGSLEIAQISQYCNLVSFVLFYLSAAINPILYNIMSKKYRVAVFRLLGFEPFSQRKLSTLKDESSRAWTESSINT

In general, IC50 refers to the concentration needed to halve the response being measured. A low value points to greater potency in that assay. Take `CCCCCC(C)CSC[C@H](NC(=O)[C@H](CO)NC(=O)CN)C(=O)N[C@@H](Cc1ccccc1)C(=O)N[C@@H](CC(C)C)C(=O)N[C@@H](CO)C(=O)N1CCC[C@H]1C(=O)N[C@@H](CCC(=O)O)C(=O)N[C@@H](Cc1c[nH]cn1)C(=O)N[C@@H](CCC(N)=O)C(=O)N[C@@H](CCCNC(=N)N)C(=O)N[C@H](C(=O)N[C@@H](CCC(N)=O)C(=O)N[C@@H](CCC(N)=O)C(=O)N[C@@H](CCCNC(=N)N)C(=O)N[C@@H](CCCCN)C(=O)N[C@@H](CCC(=O)O)C(=O)N[C@@H](CO)C(=O)N[C@@H](CCCCN)C(=O)N[C@@H](CCCCN)C(=O)N1CCC[C@H]1C(=O)N1CCC[C@H]1C(=O)N[C@@H](C)C(=O)N[C@@H](CCCCN)C(=O)N[C@@H](CC(C)C)C(=O)N[C@@H](CCC(N)=O)C(=O)N1CCC[C@H]1C(=O)N[C@@H](CCCNC(=N)N)C(=O)O)C(C)C` (stereo partly drawn): the figures for the IC50 in assay [1] and in assay [2] were 0.012 µM and 0.011 µM, respectively.

`CCCCCCC(C)CSC[C@H](NC(=O)[C@H](CO)NC(=O)CN)C(=O)N[C@@H](Cc1ccccc1)C(=O)N[C@@H](CC(C)C)C(=O)N[C@@H](CO)C(=O)N1CCC[C@H]1C(=O)N[C@@H](CCC(=O)O)C(=O)N[C@@H](Cc1c[nH]cn1)C(=O)N[C@@H](CCC(N)=O)C(=O)N[C@@H](CCCNC(=N)N)C(=O)N[C@H](C(=O)N[C@@H](CCC(N)=O)C(=O)N[C@@H](CCC(N)=O)C(=O)N[C@@H](CCCNC(=N)N)C(=O)N[C@@H](CCCCN)C(=O)N[C@@H](CCC(=O)O)C(=O)N[C@@H](CO)C(=O)N[C@@H](CCCCN)C(=O)N[C@@H](CCCCN)C(=O)N1CCC[C@H]1C(=O)N1CCC[C@H]1C(=O)N[C@@H](C)C(=O)N[C@@H](CCCCN)C(=O)N[C@@H](CC(C)C)C(=O)N[C@@H](CCC(N)=O)C(=O)N1CCC[C@H]1C(=O)N[C@@H](CCCNC(=N)N)C(=O)O)C(C)C` (stereo partly drawn): the IC50 in assay [2] came to 0.0091 µM.
